Patent US12252697B2 (priority 2019, dated 2025)
“Also recorded” adds a separate entry of the source.

Assays:
[1] = test system: S. orientale F3 plants (cross B); experiment: progeny test segregation analysis, visual injury after 2,4-D spray; type: in vivo, Sisymbrium orientale; settings: 200 gai ha^-1 2,4-D, 28 days after treatment
Experimental: A progeny test segregation analysis was performed on 219 F3 plants derived from self-pollination of a heterozygous F2 individual from cross B, identified via progeny test due to segregation of 2,4-D resistance in the F3 progeny. Plants were sprayed with 200 gai ha^−1 2,4-D at the 5 true leaf stage. Damage percentage was evaluated at 28 days after treatment. Leaf tissue was harvested and genomic DNA was extracted by CTAB. A KASP assay was performed with primers and methods as described above. To further test the co-segregation between the resistant phenotype and IAA2Δ27, nine each of R and S RILs from cross A and three each of R and S RILs from cross B were genotyped using the KASP assay. Two individuals were genotyped from each RIL.

IAA2 expression = IAA2 expression by Q-PCR after auxin treatment of seedlings; type: in vivo, Sisymbrium orientale; settings: for increase of IAA2 expression compared to untreated plants and DMSO control: 2 hr exposure
Experimental: To study IAA2 expression under auxin treatments sterilized seeds from F5 RILs for each phenotype were planted in half MS and grown until expanded cotyledon stage (size was about 2 cm from root to cotyledon tips). […] After exposure plants were collected into 2 ml centrifuge tubes and frozen in liquid nitrogen. RNA was extracted using Direct-zol RNA Microprep from Zymo research, DNAase treatment was done using DNaseI from Invitogen—ThermoFisher and cDNA was generated using iScript™ according to each manufacture protocol. Q-PCR (CFX Connect™ Real-Time PCR Detection System thermal cycler, BioRad, Hercules, Calif.) was used to determine IAA2 expression. The qPCR reaction contained 12.5 μl of SYBR Green (PerfeCTa SYBR Green FastMix), 1 μl each of forward and reverse primers (5 μM), and 1 uL of cDNA for a final reaction volume of […] parameters were 50° C. for 2 min, 95° C. for 10 min, and 40 cycles of 95° C. for 30 s and 60° C. for 1 min. Relative expression quantification was calculated by Expression=2^ΔCt, where ΔCT=CT(average of Actin2 and Cyclophilin)−CT(IAA2). Each biological sample was run in two technical replicates.

[2] = test system: Arabidopsis thaliana (Col-0); experiment: 2,4-D spray of transformed Arabidopsis; type: in vivo; settings: 200 g a.i. ha^-1
Experimental: Arabidopsis transformation was performed based on established protocols with modifications. IAA2 alleles were amplified by PCR from cDNA generated from RNA extracts of homozygous R and S F5 lines (cross A). RNA was extracted using Direct-zol RNA Miniprep Plus Kit (Zymo). cDNA synthesis was performed using oligo(dT)20 primers from SuperScript™ II Reverse Transcriptase (Invitrogen). Wild-type and mutant alleles were amplified by PCR using PrimeSTAR HS Premix (Takara), using primers linked with restriction enzyme sites for cloning. Purified PCR amplicons were ligated into the pGEM-T Easy Vector (Promega), transformed into E. coli, sequenced by Sanger sequencing, and digested using the restriction sites AscI and BamHI (New England BioLabs). The digested product was then ligated into the binary vector pFGC5941 and cloned into Agrobacterium tumefaciens (strain GV3101). For plant transformation, Agrobacterium 400 mL liquid cultures were incubated at 28 C overnight and after centrifugation, resuspended in a 300 mL transformation solution (5% sucrose and 0.02% Silwet L-77). Each allele of IAA2 was transformed into Arabidopsis thaliana (Col-0) by floral dip and grown to seed production.
For transformant selection, 40 mg of transformed seeds for each IAA2 allele were cleaned with bleach solution (12.5%) and plated at half MS selective media with Cefotaxime (200 mg/L) and glufosinate-ammonium (7.5 mg/L). After two weeks, positive transformants were transferred to a second selective plate with half MS, Cefotaxime (100 mg/L) and glufosinate-ammonium (5 mg/L). After selection, potential transformants were transferred to soil and grown until seed production. For T2 selection, 36 seeds were cleaned and grown on half MS and glufosinate-ammonium (5 mg/L) media. T3 homozygous plants containing just one copy of the T-DNA vector were selected and IAA2 expression was analyzed using the same primers from mustard expression assay (see below), AtCyclophilin and AtActin2 were used as normalization genes. […]

Arabidopsis root growth = experiment: root growth assay, transformed Arabidopsis; type: in vivo, Arabidopsis thaliana; settings: for root growth tolerance compared with null vector or wild type gene: Arabidopsis transformed with mutant S. orientale IAA2Δ27; for root growth response: Arabidopsis transformed with the null vector
Experimental: (§1) All root assays were performed on 120 mm square petri dishes with half MS and 1% phytoagar. […] For the mustard root assay, ten seedlings (3 days after germination) of F5 RILs of each phenotype were transferred to an auxin treated or control plate, the root tip of each plant was marked and root growth was evaluated seven days after treatment. For Arabidopsis, sterilized seeds were planted directly on the treated petri dish and incubated at 4° C. for seed […] and moved to the growth chamber after 3 days. T3 homozygous plants of 35::SoIAA2WT, 35::SoIAA2Δ27, the T-DNA insertion line on AtIAA2 and the empty T-DNA from PFGC5941 plasmid as control were used in this study. Twelve plants per construct ware used in total and roots were measured three weeks after the plates were moved to the growth conditions. For all root assays, seeds were gas sterilized for 6 hours using bleach and hydrochloric acid. The plants were grown under controlled conditions of 180 uMol m^−2 light intensity, relative humidity of 60%, 16 hours of day and day/night temperatures of 22/18° C.

TIR1/auxin/IAA complex = experiment: surface plasmon resonance (SPR) binding assay; set-up: species or system Sisymbrium orientale; settings: mutant IAA2Δ27 peptide vs IAA2 wild-type; compound 50 μM
From the text: In short, this assay measures the binding of auxin and IAA to the receptor protein TIR1 and their unbinding.
Surface plasmon resonance (SPR) experiments were done according to published protocols. TIR1/AFBS was expressed in insect cell culture using a recombinant baculovirus. The construct contained sequences for three affinity tags, namely 6 His, maltose-binding protein (MBP) and FLAG. Initial purification using the His tag was followed by clean-up using FLAG chromatography, the purified protein was used for SPR assays by passing it over a streptavidin chip loaded with biotinylated IAA2/IAA7 degron peptides.
The SPR buffer was Hepes-buffered saline with 10 mM Hepes, 3 mM EDTA, 150 mM NaCl and 0.05% Tween 20. Compounds to be tested were premixed with the protein to a final 50 μM concentration. Binding experiments were run at a flow rate of 30 μl min^−1 using 2.0 min of injection time and 4.0 min of dissociation time. Data from a control channel (mIAA7) and from a buffer+DMSO-only run were subtracted from each sensogram following the standard double reference subtraction protocol.

[3] = test system: S. orientale populations from Southern Australia; experiment: single-rate 2,4-D resistance screen of S. orientale populations; type: in vivo, Sisymbrium orientale; settings: eight populations; 250 g ha^-1 2,4-D at 4-leaf stage; leaf curl 48 h, confirmed 21 days
Experimental: The presence of IAA2Δ27 in other 2,4-D resistant populations of S. orientale was also investigated. Seeds of S. orientale populations were germinated by sowing directly onto the soil surface of seedling trays containing standard potting mix. Once emerged, seedlings were transplanted into 9.5×8.5×9.5 cm punnet pots and grown outdoors at the Waite Campus, University of Adelaide, Australia. At the 4-leaf stage, plants were treated with a single rate of 250 g. a. ha^−1 2,4-D (2,4-D amine 650, FMC) to screen for resistance. Herbicide was applied using a laboratory moving boom pesticide applicator and applied at an equivalent of 109 L ha−1 of water at a pressure of 250 kPa and a speed of 1 m s−1 using Tee-Jet 001 nozzles (Tee-Jet 8001E; Spraying Systems Co., Wheaton, Ill.). Leaf curl was assessed 48 h after treatment, with any plants showing signs of leaf curl considered susceptible and tissue harvested, while the remaining plants were considered resistant and allowed to grow for a further 21 days to confirm resistance and tissue subsequently harvested.

[4] = test system: Sisymbrium orientale PB-R1 plants; settings: PB-R1 plants vs Roseworthy S plants; cited from earlier work
[5] = test system: S. orientale RILs root growth; experiment: root growth assay, S. orientale inbred lines; type: in vivo, Sisymbrium orientale; settings: S. orientale RILs homozygous for IAA2Δ27 vs IAA2 wild-type allele
Experimental: as §1

[6] = Arabidopsis transformed with wild type S. orientale IAA2

## O=C(O)COc1ccc(Cl)cc1Cl [2,4-D, 2,4-dichlorophenoxyacetic acid]
[1]; heterozygous plants
  average injury: 24%
[1]; homozygous resistant plants
  injury: 12%
[1]; sensitive plants homozygous for IAA2WT
  visual injury: 70%
IAA2 expression; R seedlings
  increase of IAA2 expression compared to untreated plants and DMSO control: 2.5 fold
IAA2 expression; S
  effect of treatment on IAA2 expression (FIG. 7): increases IAA2 expression
IAA2 expression; S seedlings
  increase of IAA2 expression compared to untreated plants and DMSO control: 4 fold
IAA2 expression; treated resistant plants
  relative expression (RE) of IAA2: 0.16
IAA2 expression; treated susceptible plants
  relative expression (RE) of IAA2: 0.55
[2]; Arabidopsis transformed with S. orientale IAA2Δ27
  response to herbicide treatment: resistant
[2]; [6]
  response to herbicide treatment: susceptible; also recorded: sensitive
[2]; wild type Arabidopsis
  response to herbicide treatment: susceptible; also recorded: sensitive
Arabidopsis root growth
  root growth tolerance compared with null vector or wild type gene: higher tolerance; also recorded: confers resistance
  root growth response: susceptible to inhibition
TIR1/auxin/IAA complex
  association of the herbicide/IAA/TIR1 complex (Ka): slower association
  dissociation of the herbicide/IAA/TIR1 complex (Kd): more rapid dissociation; also recorded: faster
[3]
  populations identified as resistant: four identified as resistant
[4]
  fold more resistant compared to S plants: 22 fold

## O=C(O)c1nc(Cl)ccc1Cl [Clopyralid]
Arabidopsis root growth
  root growth tolerance compared with null vector or wild type gene: higher tolerance; also recorded: confers resistance

## COc1c(Cl)ccc(Cl)c1C(=O)O [Dicamba]
Arabidopsis root growth
  root growth tolerance compared with null vector or wild type gene: higher tolerance; also recorded: confers resistance
  root growth response: susceptible to inhibition
Arabidopsis root growth; [6]
  root growth response compared with the null vector: slightly more tolerant
TIR1/auxin/IAA complex
  association of the herbicide/IAA/TIR1 complex (Ka): slower association
  dissociation of the herbicide/IAA/TIR1 complex (Kd): more rapid dissociation; also recorded: faster

## O=C(O)Cc1c[nH]c2ccccc12 [IAA, indoleacetic acid]
IAA2 expression; R seedlings
  increase of IAA2 expression compared to untreated plants and DMSO control: 9.5 fold
IAA2 expression; S seedlings
  increase of IAA2 expression compared to untreated plants and DMSO control: 7 fold
IAA2 expression; treated resistant plants
  relative expression (RE) of IAA2: 0.62
IAA2 expression; treated susceptible plants
  relative expression (RE) of IAA2: 1
Arabidopsis root growth
  root growth tolerance compared with null vector or wild type gene: higher tolerance; also recorded: confers resistance
TIR1/auxin/IAA complex
  association of the herbicide/IAA/TIR1 complex (Ka): slower association
  dissociation of the herbicide/IAA/TIR1 complex (Kd): more rapid dissociation; also recorded: faster

## Cc1cc(Cl)ccc1OCC(=O)O [MCPA]
[5]
  root growth tolerance: higher tolerance; also recorded: confers resistance
[4]
  fold more resistant compared to S plants: 20 fold

## COc1c(Cl)ccc(-c2nc(C(=O)OCc3ccccc3)c(Cl)c(N)c2F)c1F [Rinskor (florpyrauxifen-benzyl), florpyrauxifen-benzyl]
[5]
  root growth tolerance: confers resistance
[5]; listed as fluorpyrauxifen-benzyl
  root growth tolerance: higher tolerance
